# Experimental data as given in article PMC7525093, “Bis-Quinolinium Cyclophane Blockers of SK Potassium Channels Are Antagonists of M3 Muscarinic Acetylcholine Receptors” (Frontiers in Pharmacology, 2020).
# Assays:
# SK3 = target: SK3; set-up: method as in Benton D.C. et al., 2013; settings: 125I-Apamin competition; ref Benton D.C. et al., 2013; read-out: Ki, SK3 channels; cited from earlier work
# M5 muscarinic receptor = target: T1, M5 muscarinic receptor (Homo sapiens, UniProt P08912); assay: R-CEPIAer ER calcium assay, CHO cells transiently transfected with M5 receptor; assay type: cell-based
# T1 construct: expressed in transfected cells; host or cells: CHO cells, transiently co-transfected with pCMV R-CEPIAer
# T1 sequence (P08912 1-532): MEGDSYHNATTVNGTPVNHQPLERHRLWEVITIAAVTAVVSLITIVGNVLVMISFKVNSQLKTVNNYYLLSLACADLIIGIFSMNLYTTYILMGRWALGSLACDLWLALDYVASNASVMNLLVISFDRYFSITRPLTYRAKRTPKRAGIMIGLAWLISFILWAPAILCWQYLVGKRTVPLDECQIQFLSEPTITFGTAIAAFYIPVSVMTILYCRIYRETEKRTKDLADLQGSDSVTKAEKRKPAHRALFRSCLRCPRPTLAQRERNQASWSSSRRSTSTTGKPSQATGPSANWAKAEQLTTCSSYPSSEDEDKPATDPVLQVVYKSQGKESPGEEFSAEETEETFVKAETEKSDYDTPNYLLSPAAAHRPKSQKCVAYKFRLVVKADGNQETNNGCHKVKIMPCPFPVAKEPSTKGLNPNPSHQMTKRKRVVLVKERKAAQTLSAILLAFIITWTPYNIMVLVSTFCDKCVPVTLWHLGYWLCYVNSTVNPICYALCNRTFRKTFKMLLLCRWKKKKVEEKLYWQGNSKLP
# Experimental: [Worded in the source for another target; used here, by the source, with some conditions changed.] The binding of antagonists to Gq-coupled receptors was determined by measuring IP3-mediated calcium depletion from the endoplasmic reticulum (ER). This was accomplished using CHO-K1 cells stably transfected with human M3 muscarinic acetylcholine receptor (CEM3000000, cDNA Resource Center, Bloomsburg University) and R-CEPIAer, a low affinity ER-targeted calcium indicator fluorescent protein ([Suzuki et al., 2014]). R-CEPIAer reporting of ER calcium concentration was assessed using 564 nm excitation light (>590 long-pass emission) at 20 second intervals on a Nikon swept-field confocal microscope using slit-scan mode, 2x2 Binning, and 100 millisecond frames. F/Fmax was fluorescence intensity normalized to maximal fluorescence intensity during the experiment. The response of cells to Gq-coupled receptor agonist were measured as the change in F/Fmax (ΔF/Fmax) from preagonist value to fluorescence minimum during agonist application (that occurs by IP3-mediated ER calcium depletion). […] Perfusion of each agonist application was for 2 min, while the antagonist overlapped and preceded the second agonist application by 3 min. […] IC50 was calculated by assaying fractional inhibition using a dose-response of antagonist concentrations (i.e. Figure 1D ). […]
compound,measurement,setting,value
"c1cc2cc(c1)C[n+]1ccc(c3ccccc31)NCc1ccc(cc1)CNc1cc[n+](c3ccccc13)C2 [UCL 1684, 6,12,19,20,25,26-Hexahydro-5,27:13,18:21,24-trietheno-11,7-metheno-7H-dibenzo [b,n] [1,5,12,16]tetraazacyclotricosine-5,13-diium dibromide]",Ki,SK3,7.7 nM
same,IC50,M5 muscarinic receptor,520 nM
same,"Hill slope of inhibition curve, M5 receptor",M5 muscarinic receptor; 0.5 μM carbachol,1.4 ± 0.17
